According to ChEMBL document CHEMBL2413072, “Synthesis and in vitro anticancer studies of novel C-2 arylidene congeners of lantadenes” (2013):

What was measured:
Assay type in all cases: functional
[1] = tested on: SK-MEL-28; test: Growth inhibition of human SK-MEL-28 cells assessed as cell growth at 10^-8 M by sulforhodamine B assay; conditions: read-out: Activity
[2] = tested on: SNB-19; test: Growth inhibition of human SNB19 cells assessed as cell growth at 10^-8 M by sulforhodamine B assay; conditions: read-out: Activity
[3] = tested on: U-251; test: Growth inhibition of human U251 cells assessed as cell growth at 10^-4 M by sulforhodamine B assay; conditions: read-out: Activity
[4] = tested on: OVCAR-4; test: Growth inhibition of human OVCAR4 cells assessed as cell growth at 10^-7 M by sulforhodamine B assay; conditions: read-out: Activity
[5] = tested on: SK-MEL-28; test: Growth inhibition of human SK-MEL-28 cells assessed as cell growth at 10^-4 M by sulforhodamine B assay; conditions: read-out: Activity
[6] = tested on: SN12C; test: Growth inhibition of human SN12C cells assessed as cell growth at 10^-6 M by sulforhodamine B assay; conditions: read-out: Activity
[7] = tested on: MDA-MB-468; test: Growth inhibition of human MDA-MB-468 cells assessed as cell growth at 10^-8 M by sulforhodamine B assay; conditions: read-out: Activity
[8] = tested on: BT-549; test: Growth inhibition of human BT549 cells assessed as cell growth at 10^-6 M by sulforhodamine B assay; conditions: read-out: Activity
[9] = tested on: SR; test: Growth inhibition of human SR cells by sulforhodamine B assay
[10] = tested on: HT-29; test: Growth inhibition of human HT-29 cells assessed as cell growth at 10^-4 M by sulforhodamine B assay; conditions: read-out: Activity
[11] = tested on: SR; test: Growth inhibition of human SR cells assessed as cell growth at 10^-8 M by sulforhodamine B assay; conditions: read-out: Activity
[12] = tested on: RXF 393; test: Growth inhibition of human RXF393 cells assessed as cell growth at 10^-8 M by sulforhodamine B assay; conditions: read-out: Activity
[13] = tested on: NCI-H226; test: Growth inhibition of human NCI-H226 cells by sulforhodamine B assay
[14] = tested on: OVCAR-8; test: Growth inhibition of human OVCAR8 cells assessed as cell growth at 10^-8 M by sulforhodamine B assay; conditions: read-out: Activity
[15] = tested on: Malme-3M; test: Growth inhibition of human MALME-3M cells assessed as cell growth at 10^-8 M by sulforhodamine B assay; conditions: read-out: Activity
[16] = tested on: SK-MEL-5; test: Growth inhibition of human SK-MEL-5 cells assessed as cell growth at 10^-4 M by sulforhodamine B assay; conditions: read-out: Activity
[17] = tested on: BT-549; test: Growth inhibition of human BT549 cells assessed as cell growth at 10^-8 M by sulforhodamine B assay; conditions: read-out: Activity
[18] = tested on: T47D; test: Growth inhibition of human T47D cells by sulforhodamine B assay
[19] = tested on: MCF7; test: Growth inhibition of human MCF7 cells assessed as cell growth at 10^-8 M by sulforhodamine B assay; conditions: read-out: Activity
[20] = tested on: SK-MEL-28; test: Growth inhibition of human SK-MEL-28 cells by sulforhodamine B assay
[21] = Growth inhibition of human Hs 578T cells assessed as cell growth at 10^-8 M by sulforhodamine B assay; conditions: read-out: Activity
[22] = tested on: HCT-15; test: Growth inhibition of human HCT15 cells assessed as cell growth at 10^-6 M by sulforhodamine B assay; conditions: read-out: Activity
[23] = tested on: OVCAR-5; test: Growth inhibition of human OVCAR5 cells assessed as cell growth at 10^-8 M by sulforhodamine B assay; conditions: read-out: Activity
[24] = tested on: RPMI-8226; test: Growth inhibition of human RPMI8226 cells assessed as cell growth at 10^-4 M by sulforhodamine B assay; conditions: read-out: Activity
[25] = tested on: HOP-92; test: Growth inhibition of human HOP92 cells assessed as cell growth at 10^-7 M by sulforhodamine B assay; conditions: read-out: Activity
[26] = tested on: HCT-15; test: Growth inhibition of human HCT15 cells by sulforhodamine B assay
[27] = tested on: SW-620; test: Growth inhibition of human SW620 cells assessed as cell growth at 10^-8 M by sulforhodamine B assay; conditions: read-out: Activity
[28] = tested on: NCI-H522; test: Growth inhibition of human NCI-H522 cells assessed as cell growth at 10^-6 M by sulforhodamine B assay; conditions: read-out: Activity
[29] = tested on: HT-29; test: Growth inhibition of human HT-29 cells assessed as cell growth at 10^-7 M by sulforhodamine B assay; conditions: read-out: Activity
[30] = tested on: NCI-H522; test: Growth inhibition of human NCI-H522 cells by sulforhodamine B assay
[31] = Growth inhibition of human HCC2998 cells assessed as cell growth at 10^-6 M by sulforhodamine B assay; conditions: HCC 2998, read-out: Activity
[32] = tested on: MOLT-4; test: Growth inhibition of human MOLT4 cells assessed as cell growth at 10^-6 M by sulforhodamine B assay; conditions: read-out: Activity
[33] = tested on: SK-OV-3; test: Growth inhibition of human SKOV3 cells assessed as cell growth at 10^-7 M by sulforhodamine B assay; conditions: read-out: Activity
[34] = tested on: HL-60(TB); test: Growth inhibition of human HL-60(TB) cells assessed as cell growth at 10^-4 M by sulforhodamine B assay; conditions: read-out: Activity
[35] = tested on: MDA-MB-435; test: Growth inhibition of human MDA-MB-435 cells by sulforhodamine B assay
[36] = tested on: TK-10; test: Growth inhibition of human TK10 cells assessed as cell growth at 10^-4 M by sulforhodamine B assay; conditions: read-out: Activity
[37] = tested on: SF-295; test: Growth inhibition of human SF295 cells assessed as cell growth at 10^-7 M by sulforhodamine B assay; conditions: read-out: Activity
[38] = tested on: SN12C; test: Growth inhibition of human SN12C cells assessed as cell growth at 10^-4 M by sulforhodamine B assay; conditions: read-out: Activity
[39] = tested on: OVCAR-3; test: Growth inhibition of human OVCAR3 cells assessed as cell growth at 10^-4 M by sulforhodamine B assay; conditions: read-out: Activity
[40] = tested on: U-251; test: Growth inhibition of human U251 cells assessed as cell growth at 10^-8 M by sulforhodamine B assay; conditions: read-out: Activity
[41] = tested on: HCT-116; test: Growth inhibition of human HCT116 cells assessed as cell growth at 10^-6 M by sulforhodamine B assay; conditions: read-out: Activity
[42] = read-out: LC50 (the source's name)
[43] = read-out: pLC50 (the source's name) (converted)

With `C/C=C(/C)C(=O)O[C@@H]1CC(C)(C)C[C@H]2C3=CC[C@@H]4[C@@]5(C)CCC(=O)C(C)(C)[C@@H]5CC[C@@]4(C)[C@]3(C)CC[C@@]12C(=O)O` [LANTADENE A] the growth at 0.01 µM [1] was 97%, the growth at 0.01 µM [2] was 93% and the growth at 100 µM [3] was 6%. It also gave a growth at 0.1 µM [4] of 95%, a growth at 100 µM [5] of 42% and a growth at 1 µM [6] of 85%. For the same compound, the growth at 0.01 µM [7] was 95%, the growth at 1 µM [8] was 90% and the GI50 ([9]; read-out: GI50) was 3 µM. It also gave a CC50 [9, 42] greater than 100 µM, a TGI ([9]; read-out: TGI) greater than 100 µM and a GI50 ([9]; read-out: pGI50 (converted)) of 3.02 µM. The CC50 [9, 43] was greater than 100 µM, the TGI ([9]; read-out: pTGI (converted)) was greater than 100 µM and the growth at 100 µM [10] was 19%. For the same compound, the growth at 0.01 µM [11] was 84%, the growth at 0.01 µM [12] was 95% and the GI50 ([13]; read-out: GI50) was 4.71 µM. It also gave an LC50 ([13]; read-out: LC50) greater than 100 µM, a TGI ([13]; read-out: TGI) greater than 100 µM and a GI50 ([13]; read-out: pGI50 (converted)) of 4.68 µM. The LC50 ([13]; read-out: pLC50 (converted)) was greater than 100 µM, the TGI ([13]; read-out: pTGI (converted)) was greater than 100 µM and the growth at 0.01 µM [14] was 97%. The growth at 0.01 µM [15] was 98%, the growth at 100 µM [16] was -46% and the growth at 0.01 µM [17] was 99%. It also gave a GI50 ([18]; read-out: GI50) of 6.15 µM, a CC50 [18, 42] greater than 100 µM and a TGI ([18]; read-out: TGI) greater than 100 µM. It also gave a GI50 ([18]; read-out: pGI50 (converted)) of 6.17 µM, a CC50 [18, 43] greater than 100 µM and a TGI ([18]; read-out: pTGI (converted)) greater than 100 µM. The growth at 0.01 µM [19] was 94%, the GI50 ([20]; read-out: GI50) was 12.8 µM and the CC50 [20, 42] was greater than 100 µM. It also gave a TGI ([20]; read-out: TGI) greater than 100 µM, a GI50 ([20]; read-out: pGI50 (converted)) of 12.9 µM and a CC50 [20, 43] greater than 100 µM. For the same compound, the TGI ([20]; read-out: pTGI (converted)) was greater than 100 µM, the growth at 0.01 µM [21] was 97% and the growth at 1 µM [22] was 87%. The growth at 0.01 µM [23] was 101%, the growth at 100 µM [24] was 10% and the growth at 0.1 µM [25] was 71%. The GI50 ([26]; read-out: GI50) was 3.17 µM, the LC50 (50% lethal concentration) ([26]; read-out: LC50) was greater than 100 µM and the TGI ([26]; read-out: TGI) was greater than 100 µM. It also gave a GI50 ([26]; read-out: pGI50 (converted)) of 3.16 µM, an LC50 (50% lethal concentration) ([26]; read-out: pLC50 (converted)) greater than 100 µM and a TGI ([26]; read-out: pTGI (converted)) greater than 100 µM. For the same compound, the growth at 0.01 µM [27] was 100%, the growth at 1 µM [28] was 94% and the growth at 0.1 µM [29] was 101%. For the same compound, the GI50 ([30]; read-out: GI50) was 3.25 µM, the CC50 [30, 42] was greater than 100 µM and the TGI ([30]; read-out: TGI) was 44.1 µM. It also gave a GI50 ([30]; read-out: pGI50 (converted)) of 3.24 µM, a CC50 [30, 43] greater than 100 µM and a TGI ([30]; read-out: pTGI (converted)) of 43.7 µM. For the same compound, the growth at 1 µM [31] was 98%, the growth at 1 µM [32] was 89% and the growth at 0.1 µM [33] was 114%. The growth at 100 µM [34] was -38%, the GI50 ([35]; read-out: GI50) was 5.24 µM and the CC50 [35, 42] was greater than 100 µM. The TGI ([35]; read-out: TGI) was greater than 100 µM, the GI50 ([35]; read-out: pGI50 (converted)) was 5.25 µM and the CC50 [35, 43] was greater than 100 µM. It also gave a TGI ([35]; read-out: pTGI (converted)) greater than 100 µM, a growth at 100 µM [36] of 6% and a growth at 0.1 µM [37] of 88%. The growth at 100 µM [38] was 15%, the growth at 100 µM [39] was 23% and the growth at 0.01 µM [40] was 98%. For the same compound, the growth at 1 µM [41] was 86%.
